Measured values from patent EP0584797A2, “Novel cephalosporin compounds and processes for the preparation thereof” (LUCKY LTD., priority 1992, dated 1994).
Converted amounts (≈) assume the structure as drawn.

Experiments:
Experiment in all cases: minimal inhibitory concentration, two-fold agar dilution
Type in all cases: cell-based
[1] = tested on: Morganella morganii ATCC 8076h; conditions: ATCC8076H, Muller-Hinton agar, 37°C, 20 hours, read-out: MIC values against the standard strains
Protocol: (§1) These MIC values were taken by employing a two-fold dilution method: that is, two-fold serial dilutions of each of the test compounds were made and dispersed in a Muller-Hinton agar medium; 2µl of the standard test strain which had the 10⁷ CFU(Colony Forming Unit) per ml was inoculated on the medium; and these were incubated at 37°C for 20 hours.

[2] = tested on: Enterobacter cloacae ATCC 27508; conditions: ATCC27508, Muller-Hinton agar, 37°C, 20 hours, read-out: MIC values against the standard strains
Protocol: as §1

[3] = tested on: Providencia rettgeri ATCC 9250; conditions: ATCC9250, Muller-Hinton agar, 37°C, 20 hours, read-out: MIC values against the standard strains
Protocol: as §1

[4] = tested on: Serratia marcescens ATCC 27117; conditions: ATCC27117, Muller-Hinton agar, 37°C, 20 hours, read-out: MIC values against the standard strains
Protocol: as §1

[5] = tested on: Proteus vulgaris ATCC 6059; conditions: ATCC6059, Muller-Hinton agar, 37°C, 20 hours, read-out: MIC values against the standard strains
Protocol: as §1

[6] = tested on: Citrobacter freundii ATCC 8090; conditions: ATCC8090, Muller-Hinton agar, 37°C, 20 hours, read-out: MIC values against the standard strains
Protocol: as §1

[7] = tested on: Pseudomonas aeruginosa ATCC 27853; conditions: ATCC27853, Muller-Hinton agar, 37°C, 20 hours, read-out: MIC values against the standard strains
Protocol: as §1

[8] = tested on: Klebsiella pneumoniae ATCC 10031; conditions: ATCC10031, Muller-Hinton agar, 37°C, 20 hours, read-out: MIC values against the standard strains
Protocol: as §1

[9] = tested on: Staphylococcus aureus ATCC 10537; conditions: ATCC10537, Muller-Hinton agar, 37°C, 20 hours, read-out: MIC values against the standard strains
Protocol: as §1

[10] = tested on: Shigella flexneri ATCC 11836; conditions: ATCC11836, Muller-Hinton agar, 37°C, 20 hours, read-out: MIC values against the standard strains
Protocol: as §1

[11] = tested on: Pseudomonas aeruginosa ATCC 10145; conditions: ATCC10145, Muller-Hinton agar, 37°C, 20 hours, read-out: MIC values against the standard strains
Protocol: as §1

[12] = tested on: Enterobacter aerogenes ATCC 29751; conditions: Klebsiella aerogenes, ATCC29751; Muller-Hinton agar; 37°C; 20 hours; read-out: MIC values against the standard strains
Protocol: as §1

[13] = tested on: Pseudomonas aeruginosa ATCC 25619; conditions: ATCC25619, Muller-Hinton agar, 37°C, 20 hours, read-out: MIC values against the standard strains
Protocol: as §1

[14] = tested on: Streptococcus faecalis ATCC 29212; conditions: Enterococcus faecalis, ATCC29212; Muller-Hinton agar; 37°C; 20 hours; read-out: MIC values against the standard strains
Protocol: as §1

[15] = tested on: Staphylococcus aureus ATCC 6538p; conditions: ATCC6538P, Muller-Hinton agar, 37°C, 20 hours, read-out: MIC values against the standard strains
Protocol: as §1

[16] = tested on: Escherichia coli ATCC 10536; conditions: ATCC10536, Muller-Hinton agar, 37°C, 20 hours, read-out: MIC values against the standard strains
Protocol: as §1

[17] = tested on: Bacillus cereus ATCC 11778; conditions: ATCC11778, Muller-Hinton agar, 37°C, 20 hours, read-out: MIC values against the standard strains
Protocol: as §1

[18] = tested on: Salmonella typhimurium ATCC 14028; conditions: Salmonella enterica; Muller-Hinton agar; 37°C; 20 hours; read-out: MIC values against the standard strains
Protocol: as §1

[19] = tested on: Micrococcus luteus ATCC 9341; conditions: ATCC9341, Muller-Hinton agar, 37°C, 20 hours, read-out: MIC values against the standard strains
Protocol: as §1

[20] = tested on: Acinetobacter calcoaceticus ATCC 15473; conditions: ATCC15473, Muller-Hinton agar, 37°C, 20 hours, read-out: MIC values against the standard strains
Protocol: as §1

[21] = tested on: Shigella sonnei ATCC 11060; conditions: ATCC11060, Muller-Hinton agar, 37°C, 20 hours, read-out: MIC values against the standard strains
Protocol: as §1

[22] = tested on: Bacillus megaterium ATCC 9885; conditions: Priestia megaterium, ATCC9885; Muller-Hinton agar; 37°C; 20 hours; read-out: MIC values against the standard strains
Protocol: as §1

[23] = tested on: Proteus mirabilis ATCC 25933; conditions: ATCC25933, Muller-Hinton agar, 37°C, 20 hours, read-out: MIC values against the standard strains
Protocol: as §1

[24] = tested on: Staphylococcus epidermidis ATCC 12228; conditions: ATCC12228, Muller-Hinton agar, 37°C, 20 hours, read-out: MIC values against the standard strains
Protocol: as §1

[25] = tested on: Escherichia coli ATCC 25922; conditions: ATCC25922, Muller-Hinton agar, 37°C, 20 hours, read-out: MIC values against the standard strains
Protocol: as §1

Compound	MIC [1]	MIC [2]	MIC [3]	MIC [4]	MIC [5]	MIC [6]	MIC [7]	MIC [8]	MIC [9]	MIC [10]	MIC [11]	MIC [12]	MIC [13]	MIC [14]	MIC [15]	MIC [16]	MIC [17]	MIC [18]	MIC [19]	MIC [20]	other results
CC(C)(O/N=C(\C(=O)N[C@@H]1C(=O)N2C(C(=O)[O-])=C(C[n+]3ccccc3)CS[C@H]12)c1csc(N)n1)C(=O)O [Ceftazidime, reference compound]	≤ 0.008 µg/mL	0.031 µg/mL (≈ 0.0567 µM)	≤ 0.008 µg/mL	0.13 µg/mL (≈ 0.238 µM)	0.063 µg/mL (≈ 0.115 µM)	0.13 µg/mL (≈ 0.238 µM)	1 µg/mL (≈ 1.83 µM)	0.13 µg/mL (≈ 0.238 µM)	4 µg/mL (≈ 7.32 µM)	0.031 µg/mL (≈ 0.0567 µM)	2 µg/mL (≈ 3.66 µM)	8 µg/mL (≈ 14.6 µM)	1 µg/mL (≈ 1.83 µM)	> 128 µg/mL	8 µg/mL (≈ 14.6 µM)	0.13 µg/mL (≈ 0.238 µM)	128 µg/mL (≈ 234 µM)	0.25 µg/mL (≈ 0.457 µM)	0.5 µg/mL (≈ 0.915 µM)	2 µg/mL (≈ 3.66 µM)	MIC [21]: 0.13 µg/mL (≈ 0.238 µM); MIC [22]: 0.25 µg/mL (≈ 0.457 µM); MIC [23]: 0.063 µg/mL (≈ 0.115 µM); MIC [24]: 4 µg/mL (≈ 7.32 µM); MIC [25]: 0.13 µg/mL (≈ 0.238 µM)
CCO/N=C(\C(=O)N[C@@H]1C(=O)N2C(C(=O)[O-])=C(CSc3nc(N)c(C(=O)O)c[n+]3C)CS[C@H]12)c1csc(N)n1 [Example 25, 7-[(Z)-2-(2-aminothiazol-4-yl)-2-(ethoxyimino)acetamido]-3-(4-amino-5-carboxy-1-methylpyrimidinium-2-yl)thiomethyl-3-cephem-4-carboxylate]	≤ 0.008 µg/mL	≤ 0.008 µg/mL	≤ 0.008 µg/mL	0.5 µg/mL (≈ 0.841 µM)	0.25 µg/mL (≈ 0.42 µM)	0.063 µg/mL (≈ 0.106 µM)	32 µg/mL (≈ 53.8 µM)	0.016 µg/mL (≈ 0.0269 µM)	0.5 µg/mL (≈ 0.841 µM)	0.016 µg/mL (≈ 0.0269 µM)	32 µg/mL (≈ 53.8 µM)	1 µg/mL (≈ 1.68 µM)	2 µg/mL (≈ 3.36 µM)	> 128 µg/mL	1 µg/mL (≈ 1.68 µM)	0.031 µg/mL (≈ 0.0521 µM)	64 µg/mL (≈ 108 µM)	0.13 µg/mL (≈ 0.219 µM)	0.063 µg/mL (≈ 0.106 µM)	32 µg/mL (≈ 53.8 µM)	MIC [21]: 0.063 µg/mL (≈ 0.106 µM); MIC [22]: 0.25 µg/mL (≈ 0.42 µM); MIC [23]: 0.25 µg/mL (≈ 0.42 µM); MIC [24]: 0.5 µg/mL (≈ 0.841 µM); MIC [25]: 0.031 µg/mL (≈ 0.0521 µM)
CCO/N=C(\C(=O)N[C@@H]1C(=O)N2C(C(=O)[O-])=C(CSc3nc(N)c4ccccc4[n+]3C)CS[C@H]12)c1csc(N)n1 [Example 29, 7-[(Z)-2-(2-aminothiazol-4-yl)-2-(ethoxyimino)acetamido]-3-(4-amino-1-methylbenzo-[5,6,e]pyrimidinium-2-yl)thiomethyl-3-cephem-4-carboxylate]	≤ 0.008 µg/mL	≤ 0.008 µg/mL	≤ 0.008 µg/mL	0.5 µg/mL (≈ 0.832 µM)	0.5 µg/mL (≈ 0.832 µM)	0.13 µg/mL (≈ 0.216 µM)	16 µg/mL (≈ 26.6 µM)	≤ 0.008 µg/mL	0.13 µg/mL (≈ 0.216 µM)	0.063 µg/mL (≈ 0.105 µM)	16 µg/mL (≈ 26.6 µM)	0.25 µg/mL (≈ 0.416 µM)	4 µg/mL (≈ 6.66 µM)	16 µg/mL (≈ 26.6 µM)	0.13 µg/mL (≈ 0.216 µM)	0.13 µg/mL (≈ 0.216 µM)	16 µg/mL (≈ 26.6 µM)	0.5 µg/mL (≈ 0.832 µM)	0.016 µg/mL (≈ 0.0266 µM)	16 µg/mL (≈ 26.6 µM)	MIC [21]: 0.25 µg/mL (≈ 0.416 µM); MIC [22]: 0.063 µg/mL (≈ 0.105 µM); MIC [23]: 0.5 µg/mL (≈ 0.832 µM); MIC [24]: 0.031 µg/mL (≈ 0.0516 µM); MIC [25]: 0.13 µg/mL (≈ 0.216 µM)
